{"source": "patent US20230130102A1", "about": "“Na/K-ATPase LIGANDS AND USE THEREOF FOR TREATMENT OF CANCER” (Marshall University Research Corporation, priority 2019, published 2023)", "key": {"subclone 2 spheroids": {"test_system": "subclone 2 spheroids", "assay": "MMP secretion by spheroids (Western blot of conditioned media)", "type": "cell-based, human", "procedure": "(§1) For drug treatment, compound was diluted into media, from stock solution. For MMP secretion, conditioned media for 3 days were collected from top of matrix and assessed for MMP secretion by Western blot using Matrix Remodeling Antibody Sampler kit from Cell Signaling Technology (Cat #73959)."}, "KD cells from C4-2": {"test_system": "KD cells from C4-2", "assay": "Western blot of EMT phenotype in α1 KD cells derived from C4-2", "type": "cell-based, human", "settings": "KD cells from C4-2, 1 μM", "procedure": "Cell lines. DU145, PC3 and C4-2 cell lines were purchased from and maintained according to ATCC recommendations. Parental DU145 and derived cell lines were cultured in high glucose […] supplemented with 10% Fetal Bovine Serum and 1% Penicillin/Streptomycin in 37° c. humidified incubator with 5% C02. LLC-PK1, PY17, Y260A, A425P and YFP-α1TCN cells were cultured in the same media and under similar conditions. PC3 and C4-2 cell lines were cultured in RPMI medium with similar conditions as described above. α1 knockdown KD cells were generated from DU145 and C4-2 using a α1 NKA-specific siRNA, as previously described. Knockdown was verified by both qPCR and Western blot analyses. Rat α1 NKA rescued cell lines were generated by transfecting KD cells with a pRC/CMV-α1 AACm1 vector followed by selection with ouabain (2 μM), as previously described. Cells were passaged for three generations without ouabain before conducting experiments.\nWestern blot, Immunoprecipitation and Immunostaining. Cells were grown to 100% confluency and Western blot were performed as described before. Images were quantified with ImageJ software from NIH. […]"}, "purified pig kidney NKA": {"biological_target": "T1, purified pig kidney NKA (Sus scrofa, UniProt P05024)", "T1 construct": "Na/K-ATPase activity assay of MB5 with purified pig kidney enzyme; from tissue; host or cells: pig kidney", "assay": "Na/K-ATPase (ATPase) activity assay", "type": "biochemical", "procedure": "It is appreciated that ouabain induces Src/ERK activation (increased protein phosphorylation) of LLC-PK1 cells by binding to α1 NKA and thereby initiates a signaling cascade which results in the endocytosis of the α1 NKA to terminate the signaling.\nATPase activity assay. ATPase activity assay was performed as previously described.\nAs archetypal agonists of NKA receptor function, ouabain and other CTS stimulate cellular signaling by activating α1 NKA/Src signalosome complex, which results in its endocytosis. It was reasoned that compounds that inhibit CTS induced signaling could function as inverse agonists of this signalosome complex and prevent α1 NKA endocytosis. A group of hydroxyxanthones were thus tested that were identified as a new class of Na/K-ATPase ligands using a high throughput in vitro screening platform and a library of 2600 structurally diverse chemicals."}, "P450 enzymes": {"test_system": "P450 enzymes", "assay": "metabolism by P450 enzymes", "type": "in vitro ADME"}, "parental C4-2 cells": {"test_system": "parental C4-2 cells", "assay": "3D culture spheroid growth, C4-2", "type": "cell-based, human", "settings": "parental C4-2, 0.1-2 μM, Day 1-7", "procedure": "(§2) 3D culture-spheroid invasion assay. Cells were trypsinized gently (0.05% Trypsin-EDTA) and diluted at 1000 cells in 20 μl of full serum media for DU145 and C4-2 derived sub-clones or 500 cells in 20 ul for PC3 cells and allowed to form spheroids using hanging drop technique for 3 days, as described previously. Generated spheroids were then embedded into 3D matrix (not yet solidified at the time of experiment), as described in the previous section, on top of a 1% solidified agarose coating in 48 well plates. Spheroids were monitored from day 1 to different time points and images were taken using a phase contrast microscope fitted with camera, at same settings. Spheroid growth or invasion area was quantified using ImageJ software from NIH. The following formulas were used for quantitation of spheroids:\n(§3) Spheroid growth=(Spheroid area at Day 3 or 7-Spheroid area at 16 hours)/Spheroid area at 16 hours"}, "[1]": {"test_system": "subclone 5 spheroids (DU145 derived)", "assay": "3D culture spheroid growth, subclone 5", "type": "cell-based, human", "settings": "subclone 5 spheroids in 3D culture", "procedure": "as §2, §3, §1"}, "PC3 cells": {"test_system": "PC3 cells", "assay": "Spheroid aggregation in ultralow attachment plates, PC3", "type": "cell-based, human", "procedure": "Spheroid aggregation in ultralow attachment plates. 5000 cells were plated in a 6 well ultralow attachment plate from Corning and allowed to form spheroids spontaneously for a week. Cell aggregates were then immunostained for E-cadherin expression using a monoclonal anti-E-cadherin antibody (Santacruz Biotechnology, Catalogue No.sc-71008), followed by Alexa-Fluor 488 anti-mouse secondary antibody (Thermo-Fisher)."}, "subclone 2 cells": {"test_system": "subclone 2 cells", "assay": "Boyden chamber migration assay", "type": "cell-based, human", "procedure": "Boyden chamber assay. Different sub-clones were grown up to 100% confluency and then gently trypsinized with 0.05% trypsin-EDTA and 100,000 cells were plated in upper chamber of a […] containing transwell filter with 0.5% FBS containing media. Full serum (10% FBS) containing media was added to the lower chamber as chemoattractant. After 16 hours, a colorimetric assay was used to determine the migration of cells to the lower side of the filter, with absorbance read at 590 nm. Briefly, lower sides of the transwell were washed with 1×PBS and then fixed with ice cold methanol for 10 minutes. After gentle washes with 1×PBS, lower side of the filter were stained with Crystal violet solution (0.5% Crystal Violet in 20% Ethanol), washed and the stain was extracted with methanol. Result was normalized against migration of sub-clone 5 cells. For cell migration in presence of pharmacological compounds, cells at 100% confluency were pretreated for 24 hours with or without MB5, PP2 (Sigma-Aldrich, Catalogue No P0042) or FAK inhibitor I (Millipore, Catalogue No. 324877) and then assay was performed as described above."}, "plasma stability": {"assay": "plasma stability", "type": "in vitro ADME"}, "[2]": {"assay": "pharmacokinetic (PK) and toxicity study in a mouse model", "type": "in vivo"}}, "note": "Values joined by “and” are separate entries in the source; they are usually repeats but may differ in a detail not shown here. Equal entries are not always repeated."}
{"smiles": "O=c1c2cccc(O)c2oc2c(O)c(O)ccc12", "note": "[MB5]", "values": [{"measurement": "MMP2 and 9 secretion", "setting": "subclone 2 spheroids", "value": "significantly reduced MMP2 and 9 secretions"}, {"measurement": "expression of SNAIL, SLUG and Myc", "setting": "KD cells from C4-2", "value": "inhibiting the expression of SNAIL, SLUG and Myc"}, {"measurement": "occludin and E-cadherin expression", "setting": "KD cells from C4-2", "value": "upregulate occludin and E-cadherin expression"}, {"measurement": "inhibition of NKA activity", "setting": "purified pig kidney NKA; about 1 nM to 100 nM", "value": "~25", "unit": "%"}, {"measurement": "high affinity component, share of Na/K-ATPase activity", "setting": "purified pig kidney NKA; biphasic NKA inhibition curve", "value": 20, "unit": "%"}, {"measurement": "IC50", "setting": "purified pig kidney NKA; purified pig kidney enzyme, low affinity component of biphasic curve", "value": "~10 µM and 10 µM"}, {"measurement": "inhibition of NKA activity", "setting": "purified pig kidney NKA; ~10 μM", "value": "~50", "unit": "%"}, {"measurement": "metabolism by P450 enzymes", "setting": "P450 enzymes", "value": "not metabolized significantly"}, {"measurement": "spheroid growth", "setting": "parental C4-2 cells", "value": "did not significantly affect spheroid growth"}, {"measurement": "spheroid size", "setting": "[1]", "value": "significantly reduced the size of subclone 5 spheroids"}, {"measurement": "cell aggregation", "setting": "PC3 cells; PC3, ultralow attachment plates", "value": "increased cell aggregation in a concentration-dependent manner"}, {"measurement": "E-cadherin expression", "setting": "PC3 cells; PC3 aggregates, immunostaining", "value": "significantly increased E-cadherin expression"}, {"measurement": "inhibition of migration of cancer cells", "setting": "subclone 2 cells; Boyden chamber assay, clone 2", "value": "about 50%"}, {"measurement": "cell migration compared with PP2 and FAK inhibitor", "setting": "subclone 2 cells; clone 2", "value": "as effectively as other kinase inhibitors"}, {"measurement": "reduction of cell migration", "setting": "subclone 2 cells; pretreatment with 100 nM for 24 hours, subclone 2", "value": 50, "unit": "%"}, {"measurement": "plasma stability", "setting": "plasma stability", "value": "good plasma stability"}, {"measurement": "systemic exposure level versus dose", "setting": "[2]; 50-200 mg/kg after oral administration", "value": "proportional to dose level"}, {"measurement": "toxic effects", "setting": "[2]; after more than 1 month of administration", "value": "No detectable toxic effects"}, {"measurement": "removal by secondary metabolism", "setting": "[2]; most likely by UGT enzymes", "value": "quickly removed by secondary metabolism"}, {"measurement": "toxicity", "setting": "[2]; mouse, in vivo", "value": "quite non-toxic"}]}
